Patent US6552225B1, “Chemical compounds” (AstraZeneca AB, priority 1999, dated 2003)

How the values were obtained:
PDH = conditions: cited from earlier work
[1] = cited from earlier work

| melting point [°C] | Compound | activity of PDH (PDH; after acute administration in animals) | proportion of PDH in its active form (PDH; single administration, 150 mg/kg, intraperitoneally) | glycaemia ([1]; Stacpoole et al., 1978) | plasma glucose ([1]; after repeated administration) |
| --- | --- | --- | --- | --- | --- |
| – | O=C(O)C(Cl)Cl [DCA, dichloroacetic acid] | increases the activity of PDH | increased the proportion of PDH in its active form | reducing glycaemia | significant decrease in plasma glucose |
| 194 to 195 | COc1cc(S(=O)(=O)Nc2ccccc2)c(OC)cc1NC(=O)[C@@](C)(O)C(F)(F)F | – | – | – | – |
